Data from patent US20130224761A1, “NON COVALENT MOLECULAR STRUCTURE, COMPRISING A PORPHYRIN BASED GLYCOCONJUGATE, DEVICE COMPRISING THE SAME AND ITS USE FOR DETECTION OF LECTIN” (CENTRE NATIONAL DE LA RECHERCHE SCIENTIFIQUE (CNRS), priority 2011, published 2013).

Columns and labels:
ConA lectin [1] = assay: SWNT-FET electronic detection of glycoconjugate-lectin interaction (G vs Vg); type: binding, Canavalia ensiformis; settings: SWNT-FET functionalized with glycoconjugate; 5 μM lectin, 5 μM Ca2+, PBS pH 7
Text: ConA (25 kDa) is a plant lectin from Canavalia ensiformis that is specific for α-D-mannose and is available commercially from Sigma and used without further purification.

ConA lectin [2] = assay: CCG-FET electronic detection of glycoconjugate-lectin interaction (G vs Vg); type: binding, Canavalia ensiformis; settings: CCG-FET functionalized with glycoconjugate; 2 μM lectin, 5 μM Ca2+, PBS
Experimental: (§1) FIG. 6 illustrates the electronic detection of carbohydrate-lectin interactions.
(§2) For each glycoconjugate functionalized device, non-specific lectins were tested first, followed by washing procedures and measuring of specific lectin. The final transfer characteristics were tested again in the configuration mentioned above.

ConA lectin [3] = assay: AFM imaging of SWNT functionalized with glycoconjugate before and after ConA lectin attachment; type: binding, Canavalia ensiformis; settings: 5 μM Ca2+
Experimental: Atomic force microscope (AFM) images (FIG. 4) were obtained using scanning probe microscope (Veeco Nanoscope II) in a tapping mode configuration. Samples were prepared by spin coating of bare or functionalized SWNTs onto a freshly cleaved sheet of mica. The images were taken after 30 min of drying in ambient and subsequent washing with PBS solution (for functionalized SWNTs).
FIG. 4a depicts a small bundle of bare SWNTs with diameter of 3.4 nm. After non covalent functionalization with glycoconjugate “5b” (non covalent molecular structure “SWNT-5b”), SWNT bundles show diameters of 11.7-14.6 nm (FIG. 4b). Con A lectin binding to the functionalized “SWNT-5b” nanostructures (“SWNT-5b-ConA”) increases SWNT diameters to 18.3 nm (FIG. 4c).

PA-IL lectin [4] = molecular target: T1, PA-IL lectin (Pseudomonas aeruginosa, UniProt Q05097); assay: CCG-FET electronic detection of glycoconjugate-lectin interaction (G vs Vg); type: binding; settings: CCG-FET functionalized with glycoconjugate; 2 μM lectin, 5 μM Ca2+, PBS
T1 construct: made in house; host or cells: Escherichia coli
T1 sequence (Q05097 whole entry): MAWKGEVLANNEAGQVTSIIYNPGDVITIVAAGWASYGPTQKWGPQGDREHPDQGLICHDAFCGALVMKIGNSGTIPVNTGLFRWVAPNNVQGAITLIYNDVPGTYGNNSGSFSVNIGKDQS
Experimental: as §1, §2

PA-IIL lectin = settings: SWNT-FET functionalized with glycoconjugate; 5 μM lectin per FIG. 5 legend (1 μM elsewhere in the source), 5 μM Ca2+, PBS pH 7
Experimental: (§3) Lectin attachment was performed in the presence of 5 μM Ca^2+.
(§4) The electrical performance of each such obtained “SWNT-FET” device was investigated in electrolyte gated FET device configuration. […] A small fluid (1 mL) chamber was placed over the SWNT-FET device to control the liquid environment using phosphate buffer solution (PBS) at pH 7. A liquid gate potential (−0.75V to 0.75 V) with respect to the grounded drain electrode was applied using Ag/AgCl (3 M KCl) reference electrode submerged in the electrolyte. The drain current of the device was measured at a constant source-drain voltage of 50 mV.
Surface functionalization of SWNT FET device with each porphyrin based glycoconjugate respectively named “5a”, “5b” and “5c” was performed by incubating them in their 5 μM solution in deionized water for 2 hours followed by rinsing with deionized water. This step was followed by incubating the chips for 30 minutes in different concentrations of lectin solutions prepared in PBS with 5 μM CaCl2 and latter rinsing with PBS solution.

PA-IL lectin [5] = molecular target: T1, PA-IL lectin; assay: SWNT-FET electronic detection of glycoconjugate-lectin interaction (G vs Vg); type: binding; settings: SWNT-FET functionalized with glycoconjugate; 5 μM lectin, 5 μM Ca2+, PBS pH 7
Experimental: as §3, §4
This step was followed by incubating the chips for 30 minutes in different concentrations of lectin solutions prepared in PBS with 5 μM CaCl2 and latter rinsing with PBS solution.

Compound	change in G vs Vg curve (threshold voltage, conductance) on treating with ConA lectin (ConA lectin [1])	change in G vs Vg curve (threshold voltage, conductance) on treating with ConA lectin (ConA lectin [2])	binding of Con A lectin to glycoconjugate on the surface of SWNTs (AFM) (ConA lectin [3])	SWNT diameter after Con A lectin binding to functionalized SWNT (AFM) (ConA lectin [3]; SWNT-5b-ConA, 11.7-14.6 nm before lectin, bare SWNT bundle 3.4 nm)	change in G vs Vg curve (threshold voltage, conductance) on treating with PA-IL lectin (PA-IL lectin [4])	change in G vs Vg curve (threshold voltage, conductance) on treating with PA-IIL lectin (PA-IIL lectin)	change in G vs Vg curve (threshold voltage, conductance) on treating with PA-IL lectin (PA-IL lectin [5])
5,10,15,20-Tetrakis(4′-{1-[(α-D-mannopyranosyloxy)-3,6-dioxaoct-8-yl]-1,2,3-triazol-4-yl}methyleneoxyphenyl)-Zn-(II)-porphyrin [5b]	positive interaction	negative shift in threshold voltage and further decrease in conductance	specific binding	18.3 nm	no significant change	no significant change	
5,10,15,20-Tetrakis(4′-{1-[(β-D-galactopyranosyloxy)-3,6-dioxaoct-8-yl]-1,2,3-triazol-4-yl}methyleneoxyphenyl)-Zn-(II)-porphyrin [5a]		no significant change			negative shift in threshold voltage and further decrease in conductance		selective response
C[C@@H]1O[C@@H](OCCOCCOCCn2cc(COc3ccc(-c4c5nc(c(-c6ccc(OCc7cn(CCOCCOCCO[C@@H]8O[C@@H](C)[C@@H](O)[C@@H](O)[C@@H]8O)nn7)cc6)c6ccc([n-]6)c(-c6ccc(OCc7cn(CCOCCOCCO[C@@H]8O[C@@H](C)[C@@H](O)[C@@H](O)[C@@H]8O)nn7)cc6)c6nc(c(-c7ccc(OCc8cn(CCOCCOCCO[C@@H]9O[C@@H](C)[C@@H](O)[C@@H](O)[C@@H]9O)nn8)cc7)c7ccc4[n-]7)C=C6)C=C5)cc3)nn2)[C@@H](O)[C@H](O)[C@@H]1O.[Zn+2] [5c, 5,10,15,20-Tetrakis(4′-{1-[(α-L-fucopyranosyloxy)-3,6-dioxaoct-8-yl]-1,2,3-triazol-4-yl}methyleneoxyphenyl)-Zn-(II)-porphyrin]						positive interactions	
